# Test results from paper PMC8933826 (EBioMedicine, 2022).
# Experiments:
# [1] = molecular target: Tet(X3); assay: biolayer interferometry; type: binding, Acinetobacter baumannii
# [2] = molecular target: Tet(X4) (Escherichia coli, UniProt A0A3T0V9Y5); assay: biolayer interferometry; type: binding
# Sequence of Tet(X4) (A0A3T0V9Y5 1-385): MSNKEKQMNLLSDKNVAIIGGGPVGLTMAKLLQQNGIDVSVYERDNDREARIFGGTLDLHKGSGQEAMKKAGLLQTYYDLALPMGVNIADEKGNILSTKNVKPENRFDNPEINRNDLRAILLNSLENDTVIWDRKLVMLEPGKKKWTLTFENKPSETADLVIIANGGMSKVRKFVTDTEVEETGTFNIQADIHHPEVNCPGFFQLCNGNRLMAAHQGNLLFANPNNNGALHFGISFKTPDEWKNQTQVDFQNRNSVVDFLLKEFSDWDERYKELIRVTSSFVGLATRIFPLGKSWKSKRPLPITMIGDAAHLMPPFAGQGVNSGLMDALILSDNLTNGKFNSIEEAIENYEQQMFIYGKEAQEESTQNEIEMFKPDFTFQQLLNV
smiles,measurement,setting,value
CC1=CC(=O)c2c(O)cccc2C1=O [plumbagin],Kd,[1],200 µM
same,Kd,[2],1.6 mM
